Test results taken from publication PMC11336009 (GeroScience, 2024).

What was measured:
[1] = tested on: 6-OHDA unilateral medial forebrain bundle lesioned rat; experiment: Dopamine measurements by HPLC in striatum and SNc of 6-OHDA lesioned rats; assay type: in vivo; settings: delayed treatment, low dose 10 mg/kg daily p.o. from day 7
Method: Gliptin treatment was initiated either prior to or after 6-OHDA lesioning (early and delayed treatment, respectively) as follows. […] An estimated dose for a 250-g rat under this treatment was 10 mg/kg/day. […] An estimated, clinically relevant, dose for a 250 g rat under this treatment was thus 30 mg/kg/day. Specifically for drug admixture into diet, drug was solubilized in 100% ETOH that was then added to the 16.2 g of food chow. Thereafter, the ETOH was evaporated off. […] Animals were weighed twice weekly and the amount of drug added to the chow was modified accordingly to maintain the daily required dose.
Brain samples were collected at 45 days after 6-OHDA lesioning. Striatal and SNc tissues were weighed and stored at − 80 °C until extraction. The tissues obtained from each animal were homogenized in 0.1 M perchloric acid and centrifuged at 13,000 g for 15 min. DA levels were measured by HPLC with electrochemical detection [47]. The analytical column was a Symmetry C18 3.5 µm (4.6 × 150.0 mm) from Waters (Milford, MA). The mobile phase consisted of 0.01 M sodium dihydrogen phosphate, 0.01 M citric acid, 2 mM sodium EDTA, 1 mM sodium octylsulfate, 10% methanol, pH 3.5 and was used at flow rate of 0.9 ml/min and a temperature of 25 °C. […] DA content was calculated as nmole/g of tissue weight.

rat rotenone model of PD = settings: cited from earlier work
high-fat-fed mice = settings: cited from earlier work

| SMILES | DA levels in SNc or striatum vs vehicle ([1]; 10 mg/kg) | DA levels in SNc or striatum vs vehicle ([1]; listed as PF‐00734,200, 10 mg/kg) | Effects in rat rotenone model of PD (rat rotenone model of PD) | Hippocampal neurogenesis (high-fat-fed mice) |
| --- | --- | --- | --- | --- |
| O=C([C@@H]1C[C@H](N2CCN(c3ncccn3)CC2)CN1)N1CCC(F)(F)C1 [PF-00734,200, Gosogliptin] | not significantly altered | did not alter DA level |  |  |
| N[C@@H](CC(=O)N1CCn2c(nnc2C(F)(F)F)C1)Cc1cc(F)c(F)cc1F [Sitagliptin] |  |  | mitigated motor deficits, striatal DA loss, SNc dopaminergic neuronal degeneration and neuroinflammation | augmented hippocampal neurogenesis |
